Source: the supplement of paper PMC10307832

Assays:
Test in all cases: relative viability (nuclei count vs DMSO), 5 days (fraction); higher = more cells survive
[1] = tested on: ABC-1
Method in brief: (§1)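 Relative viability was taken as the ratio of nuclei in treated wells to nuclei in vehicle wells. Lung cancer cell lines in 1536-well plates received compounds by pin tool one day after seeding, either one drug alone or a fixed anchor-drug dose plus five library-drug doses (not always all listed) in √10 steps. Nuclei were counted on 4× images after 5 days of treatment, and values are medians of duplicate plates.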

[2] = tested on: CAL-12T
Method in brief: as §1

[3] = tested on: HCC-366
Method in brief: as §1

[4] = tested on: HCC-78
Method in brief: as §1

[5] = tested on: LC-2-ad
Method in brief: as §1

[6] = tested on: LOU-NH91
Method in brief: as §1

[7] = tested on: LU99A
Method in brief: as §1

[8] = tested on: NCI-H1395
Method in brief: as §1

[9] = tested on: NCI-H1651
Method in brief: as §1

[10] = tested on: NCI-H1755
Method in brief: as §1

[11] = tested on: NCI-H1793
Method in brief: as §1

[12] = tested on: NCI-H1944
Method in brief: as §1

[13] = tested on: NCI-H2087
Method in brief: as §1

[14] = tested on: NCI-H2228
Method in brief: as §1

[15] = tested on: NCI-H2405
Method in brief: as §1

[16] = tested on: NCI-H3122
Method in brief: as §1

[17] = tested on: NCI-H460
Method in brief: as §1

[18] = tested on: PC-3 [JPC-3]
Method in brief: as §1

[19] = tested on: RERF-LC-KJ
Method in brief: as §1

[20] = tested on: UMC-11
Method in brief: as §1

CCN(CC)CCCCNc1ncc2cc(-c3cc(OC)cc(OC)c3)c(NC(=O)NC(C)(C)C)nc2n1 + C[C@]1(O)C[C@@H](c2nc(-c3ccc4ccc(-c5ccccc5)nc4c3)c3c(N)nccn32)C1 [Linsitinib] (partner 1 µM)
relative viability ([1]; first compound 0.01 µM): 0.915
relative viability ([1]; first compound 0.03162 µM): 0.809
relative viability ([1]; first compound 0.1 µM): 0.88
relative viability ([1]; first compound 0.3162 µM): 0.838
relative viability ([1]; first compound 1 µM): 0.722
relative viability ([2]; first compound 0.01 µM): 0.873
relative viability ([2]; first compound 0.03162 µM): 0.954
relative viability ([2]; first compound 0.1 µM): 0.729
relative viability ([2]; first compound 0.3162 µM): 0.906
relative viability ([2]; first compound 1 µM): 0.844
relative viability ([3]; first compound 0.01 µM): 0.622
relative viability ([3]; first compound 0.03162 µM): 0.706
relative viability ([3]; first compound 0.1 µM): 0.66
relative viability ([3]; first compound 0.3162 µM): 0.887
relative viability ([3]; first compound 1 µM): 0.505
relative viability ([4]; first compound 0.03162 µM): 0.55
relative viability ([4]; first compound 0.1 µM): 0.497
relative viability ([4]; first compound 0.3162 µM): 0.593
relative viability ([4]; first compound 1 µM): 0.415
relative viability ([5]; first compound 0.01 µM): 0.803
relative viability ([5]; first compound 0.03162 µM): 0.913
relative viability ([5]; first compound 0.1 µM): 0.958
relative viability ([5]; first compound 0.3162 µM): 0.876
relative viability ([5]; first compound 1 µM): 0.757
relative viability ([6]; first compound 0.01 µM): 0.882
relative viability ([6]; first compound 0.03162 µM): 0.938
relative viability ([6]; first compound 0.1 µM): 0.968
relative viability ([6]; first compound 0.3162 µM): 0.996
relative viability ([6]; first compound 1 µM): 0.93
relative viability ([7]; first compound 0.01 µM): 0.557
relative viability ([7]; first compound 0.03162 µM): 0.565
relative viability ([7]; first compound 0.1 µM): 0.565
relative viability ([7]; first compound 0.3162 µM): 0.583
relative viability ([7]; first compound 1 µM): 0.517
relative viability ([8]; first compound 0.03162 µM): 1.02
relative viability ([8]; first compound 0.1 µM): 0.935
relative viability ([8]; first compound 0.3162 µM): 1.04
relative viability ([8]; first compound 1 µM): 0.671
relative viability ([9]; first compound 0.01 µM): 1.06
relative viability ([9]; first compound 0.03162 µM): 0.931
relative viability ([9]; first compound 0.1 µM): 1.28
relative viability ([9]; first compound 0.3162 µM): 1.16
relative viability ([9]; first compound 1 µM): 0.786
relative viability ([10]; first compound 0.01 µM): 1.08
relative viability ([10]; first compound 0.03162 µM): 0.979
relative viability ([10]; first compound 0.1 µM): 0.995
relative viability ([10]; first compound 0.3162 µM): 1.08
relative viability ([10]; first compound 1 µM): 0.925
relative viability ([11]; first compound 0.01 µM): 1.14
relative viability ([11]; first compound 0.1 µM): 1.02
relative viability ([11]; first compound 0.3162 µM): 1.03
relative viability ([11]; first compound 1 µM): 0.656
relative viability ([12]; first compound 0.01 µM): 1.27
relative viability ([12]; first compound 0.03162 µM): 1.08
relative viability ([12]; first compound 0.1 µM): 1.2
relative viability ([12]; first compound 0.3162 µM): 1.3
relative viability ([12]; first compound 1 µM): 1.12
relative viability ([13]; first compound 0.01 µM): 0.912
relative viability ([13]; first compound 0.03162 µM): 0.979
relative viability ([13]; first compound 0.1 µM): 1.21
relative viability ([13]; first compound 0.3162 µM): 1.02
relative viability ([13]; first compound 1 µM): 0.883
relative viability ([14]; first compound 0.01 µM): 0.741
relative viability ([14]; first compound 0.03162 µM): 0.834
relative viability ([14]; first compound 0.1 µM): 0.872
relative viability ([14]; first compound 0.3162 µM): 1.07
relative viability ([14]; first compound 1 µM): 0.635
relative viability ([15]; first compound 0.01 µM): 0.76
relative viability ([15]; first compound 0.03162 µM): 0.862
relative viability ([15]; first compound 0.1 µM): 0.863
relative viability ([15]; first compound 0.3162 µM): 1.03
relative viability ([15]; first compound 1 µM): 0.817
relative viability ([16]; first compound 0.01 µM): 1.05
relative viability ([16]; first compound 0.03162 µM): 1.02
relative viability ([16]; first compound 0.1 µM): 1.08
relative viability ([16]; first compound 0.3162 µM): 1.04
relative viability ([16]; first compound 1 µM): 1.01
relative viability ([17]; first compound 0.01 µM): 1.05
relative viability ([17]; first compound 0.03162 µM): 0.985
relative viability ([17]; first compound 0.1 µM): 0.868
relative viability ([17]; first compound 0.3162 µM): 1.58
relative viability ([17]; first compound 1 µM): 0.293
relative viability ([18]; first compound 0.01 µM): 0.999
relative viability ([18]; first compound 0.03162 µM): 0.982
relative viability ([18]; first compound 0.1 µM): 0.954
relative viability ([18]; first compound 0.3162 µM): 1.03
relative viability ([18]; first compound 1 µM): 0.993
relative viability ([19]; first compound 0.01 µM): 0.891
relative viability ([19]; first compound 0.03162 µM): 0.961
relative viability ([19]; first compound 0.1 µM): 1.04
relative viability ([19]; first compound 0.3162 µM): 1.01
relative viability ([19]; first compound 1 µM): 0.887
relative viability ([20]; first compound 0.01 µM): 1.25
relative viability ([20]; first compound 0.03162 µM): 1.02
relative viability ([20]; first compound 0.1 µM): 1.29
relative viability ([20]; first compound 0.3162 µM): 1.21
relative viability ([20]; first compound 1 µM): 0.99
